Data on 14 compounds can be found in patent US20100093692A1, “PIPERIDINYL-PIPERIDINE AND PIPERAZINYL-PIPERIDINE FOR USE IN THE TREATMENT OF DIABETES OR PAIN” (Schering Corporation Sechering-Plough Corporation, priority 2007, published 2010).

Counter-ions that a name gives are not always drawn.

Data set [1] concerns the target T1, H3 receptors (Cavia porcellus, UniProt Q9JI35).
T1 construct: The source of the H3 receptors in this experiment was guinea pig brain; from tissue; host or cells: guinea pig brain membranes
Description: Guinea pig H3 receptor binding assay. The settings on record: guinea pig brain membranes; [3H]R-α-methyl histamine or [3H]Nα-methyl histamine; range stated for a group of compounds. As for the experimental part: The source of the H3 receptors in this experiment was guinea pig brain obtained from animals weighing 400-600 g. The brain tissue was homogenized with a solution of 50 mM Tris, pH 7.5. The final concentration of tissue in the homogenization buffer was 10% w/v. The homogenates were centrifuged at 1,000×g for 10 minutes in order to remove clumps of tissue and debris. The resulting supernatants were then centrifuged at 50,000×g for 20 minutes in order to sediment the membranes, which were then washed three times in homogenization buffer (50,000×g for 20 minutes each). The membranes were frozen and stored at −70° C. until needed.
All compounds to be tested were dissolved in DMSO and then diluted into the binding buffer (50 mM Tris, pH 7.5) such that the final concentration was 2 μg/mL with 0.1% DMSO. Membranes were then added (400 μg of protein) to the reaction tubes. The reaction was started by the addition of 3 nM [^3H]R-α-methyl histamine (8.8 Ci/mmol) or 3 nM [^3H]N^α-methyl histamine (80 Ci/mmol) and continued under incubation at 30° C. for 30 minutes. Bound ligand was separated from unbound ligand by filtration, and the amount of radioactive ligand bound to the membranes was quantitated by liquid scintillation spectrometry. All incubations were performed in duplicate and the standard error was always less than 10%. Compounds that inhibited more than 70% of the specific binding of radioactive ligand to the receptor were serially diluted to determine a Ki (nM).

The test system of data set [2] is STZ-DIO Sprague-Dawley rats (T2DM). As to the kind of experiment: In vivo effect on glucose and HbA1c in STZ-DIO diabetic rats. The arrangement: species or system rat. The settings on record: two weeks. As for the experimental part: Seventy male DIO Sprague-Dawley rats were fed HFD (45% Kcal fat) for 3 months from weaning, and were given streptozotocin (STZ) intraperitoneally at 25 mg/kg to induce type 2 diabetes (T2DM). Forty four T2DM rats were chosen for the study two weeks after STZ injection (n=11 per group, with body weights between 632 and 838 g, non-fasting glucose between 226 and 426 mg/dl and HbA1c between 8.7% and 10.9%) and were given ad libitum access to pre-weighed 45% fat (kcal) HFD or Compound 287 (1.4, 2.9 mg/g in HFD) for two weeks. Body weight, non-fasting glucose and food intake were monitored daily. Body composition and HbA1c levels were monitored before and after the two-week study by the whole body magnetic resonance analyzer and Cholestech GDX analyzer (Hayward, Calif.), respectively. The STZ-DIO rats had elevated non-fasting glucose and HbA1c levels (non-fasting glucose were between 226 and 426 mg/dl; and HbA1c were between 8.7% and 10.9%) two weeks after STZ injection. The low dose of STZ caused a 48% reduction of plasma insulin levels, which was not sufficient to cause hyperglycemia in rats fed with chow diet. In contrast, this level of plasma insulin induced hyperglycemia in the face of insulin resistance induced by the HFD. […] The control STZ-DIO rats maintained non-fasting glucose levels above […] (+12 mg/dl), which led to a significant 0.96% increase in HbA1c over 14 days.

The target of data set [3] is T2, human histamine H3 receptor (Homo sapiens, UniProt Q9Y5N1).
T2 construct: The full-length human histamine H3 receptor was cloned by PCR; expressed in transfected cells
T2 sequence (Q9Y5N1 whole entry): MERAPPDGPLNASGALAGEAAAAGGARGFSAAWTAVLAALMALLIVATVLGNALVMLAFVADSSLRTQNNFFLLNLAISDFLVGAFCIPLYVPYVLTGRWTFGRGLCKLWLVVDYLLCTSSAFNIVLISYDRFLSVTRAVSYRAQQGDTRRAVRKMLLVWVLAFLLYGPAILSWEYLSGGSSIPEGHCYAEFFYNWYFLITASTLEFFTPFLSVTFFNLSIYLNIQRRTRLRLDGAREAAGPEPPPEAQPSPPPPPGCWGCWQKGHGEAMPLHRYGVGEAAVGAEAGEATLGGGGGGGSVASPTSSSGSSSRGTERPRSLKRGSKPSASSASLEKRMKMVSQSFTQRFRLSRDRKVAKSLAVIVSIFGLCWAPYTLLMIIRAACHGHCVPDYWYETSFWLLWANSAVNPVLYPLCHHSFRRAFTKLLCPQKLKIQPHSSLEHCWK
As to the kind of experiment: Human H3 receptor binding assay. Particulars: HEK-293 membranes expressing human H3; 1 nM [3H]N-α-methylhistamine; n=4. Here is the method:
The full-length human histamine H3 receptor was cloned by PCR from a human thalamus cDNA library, with primers derived from a public database, and inserted into the CMV promoter-driven expression vector pcDNA-3.1 (Invitrogen). HEK-293 human embryonic kidney cells (ATCC) were transfected with H3 receptor plasmid and stably expressing cells were selected with G-418. Cells were grown in Dulbecco's modified Eagle's medium/10% fetal calf serum containing high glucose, 25 mM Hepes, penicillin (100 U/ml), streptomycin (100 ug/ml), 2 mM glutamine, and 0.5 mg G-418/ml at 37° C. in a humidified atmosphere of 5% CO2. For membrane preparations, cells were harvested using aspirating media, replacing it with 5 mM EDTA/0.02% trypsin/Hank's balanced salt solution, followed by incubation at 37° C. for 5 to 10 minutes. […] Nonspecific binding was determined in the presence of 10^-5 M thioperamide. After a 30 minute incubation at 30° C., assay mixtures were filtered through 0.3% polyethylenimine-soaked GF/B glass fiber filters, which were then rinsed thrice with buffer, dried, impregnated with Meltilex wax scintillant, and counted. IC50 values were determined from curves fit to the data using a non-linear, least-squares, curve-fitting program and Ki values were determined using the method of Cheng and Prusoff.

In data set [4] the test system is diabetic Goto-Kakizaki rats. Description: In vivo effect on glucose levels in diabetic Goto-Kakizaki rats. The arrangement: species or system rat. The settings on record: 10 mg/kg/day in food chow, one week; untreated rats 34 mg/dl. As for the experimental part: Adult, diabetic, Goto-Kakizaki rats (14 weeks old) were tested for non-fasting glucose levels using a glucometer. Rats with glucose levels between 130 and 370 mg/dl were randomized into treatment (N=10) and control (N=10) groups. Animals in the treatment group were administered Compound 446 in their food chow at a dose of 10 mg/kg/day. After one week of treatment, blood was collected via tail snip and the non-fasting glucose level was measured using a glucometer.

The test system of data set [5] is STZ-induced type 2 diabetic mice. As to the kind of experiment: In vivo effect on glucose levels in diabetic mice (western diet + low dose STZ). The arrangement: species or system mouse. The settings on record: 10 mg/kg/day in diet, four weeks; relative to control mice and mice treated with rosiglitazone (5 mg/kg/day in diet). As for the experimental part: Five-week-old male ICR mice were purchased from Taconic Farm (Germantown, N.Y.) and placed on a “western diet” containing 45% (kcal) fat from lard and 0.12% (w/w) cholesterol. After 3 weeks of feeding, the mice were injected once with low dose streptozocin (STZ, ip 80 mg/kg) to induce partial insulin deficiency. […] The diabetic mice were then placed in one of three groups: (1) a non-treated control group, (2) a group treated with rosiglitazone (5 mg/kg/day in diet); or (3) a group treated with Compound 446 (10/mg/kg/day in diet). All animals were treated for four weeks.

T1 sequence (Q9JI35 whole entry): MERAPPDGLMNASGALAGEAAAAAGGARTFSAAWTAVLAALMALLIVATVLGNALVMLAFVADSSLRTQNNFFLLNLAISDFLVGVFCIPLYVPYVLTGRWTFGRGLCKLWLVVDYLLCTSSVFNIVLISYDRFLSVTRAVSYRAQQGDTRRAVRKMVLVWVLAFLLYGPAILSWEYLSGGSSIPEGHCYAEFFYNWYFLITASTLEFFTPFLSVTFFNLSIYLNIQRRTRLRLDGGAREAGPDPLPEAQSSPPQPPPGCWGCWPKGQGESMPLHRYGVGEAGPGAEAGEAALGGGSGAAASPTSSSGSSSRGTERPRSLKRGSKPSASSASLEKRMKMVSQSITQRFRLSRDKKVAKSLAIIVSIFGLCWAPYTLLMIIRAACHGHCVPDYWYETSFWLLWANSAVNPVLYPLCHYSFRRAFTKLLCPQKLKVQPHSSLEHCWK

Broadly, the Ki is a measure of affinity in units of concentration, obtained from inhibition or displacement. A high value points to a looser hold on the target. As to `CO/N=C(/c1ccc(Cl)cc1)C1CCN(C(=O)C2CCN(Cc3ccnc(N)c3)CC2)CC1` [Compound 225], in data set [1], the Ki was in the range of 0.83 to 16 nM.

`Nc1cc(CN2CCC(C(=O)N3CCC(C(=O)c4ccccn4)CC3)CC2)ccn1` [Compound 30] registered a Ki in data set [1] of 0.83 to 16 nM.

Turning to `CO/N=C(\c1ccccn1)C1CCN(C(=O)C2CCN(Cc3ccnc(N)c3)CC2)CC1` [Compound 33], the Ki in data set [1] fell in the range of 0.83 to 16 nM.

In turn, `CO/N=C(/c1ccccn1)C1CCN(C(=O)C2CCN([C@H](C)c3ccnc(N)c3)CC2)CC1` [Compound 55] came in with a Ki in data set [1] of 0.83 to 16 nM.

With `CO/N=C(/c1ccccn1)C1CCN(C(=O)C2CCN([C@@H](C)c3ccnc(N)c3)CC2)CC1` [Compound 54], in data set [1], the Ki was in the range of 0.83 to 16 nM.

`CO/N=C(\c1ccccn1)C1CCN(C(=O)C2CCN([C@@H](C)c3ccnc(N)c3)CC2)CC1` [Compound 56]: the inhibition constant (Ki) in data set [1] is 0.83 to 16 nM.

As to `CO/N=C(/c1ccccn1)C1CCN(C(=O)C2CCN(Cc3cnc(N)nc3)CC2)CC1` [Compound 287], the “decrease in HbA1c level” value in data set [2] (68 mg/kg/day, 2.9 mg/g in HFD, control 0.96% increase) amounted to 0.6%. In addition, the “change in non-fasting glucose” value in data set [2] (68 mg/kg/day, 2.9 mg/g in HFD, control +12 mg/dl) was -43 mg/dL. The “HbA1c levels over the two week study period” value in data set [2] (1.4, 2.9 mg/g in HFD) is “dose-dependent reduction”. This compound also showed a Ki in data set [3] of 25 ± 4 nM.

The compound `CO/N=C(/c1ccc(Cl)cc1)C1CCN(C(=O)C2CCN(Cc3ccncc3)CC2)CC1` [Compound 273] gave a Ki in data set [1] of 0.83 to 16 nM.

In turn, `CON=C(c1ccc(Cl)cc1)C1CCN(C(=O)C2CCN(Cc3ccnc(N)c3)CC2)CC1` [Compound 280] gave a Ki in data set [1] of 0.83 to 16 nM.

As a reminder, the melting point is the temperature, or range, at which the solid turns liquid. Compound `CON=C(CC1CCN(C(=O)C2CCN(Cc3ccnc(N)c3)CC2)CC1)c1ccccn1` (as salt: maleate) [Compound 117] showed a melting point of 160 to 163 °C.

For `Nc1cc(CN2CCC(C(=O)N3CCC(C(=NO)c4ccccn4)CC3)CC2)ccn1` [Compound 237], the Ki in data set [1] was 0.83 to 16 nM.

As to `CO/N=C(/c1ccccn1)C1CCN(C(=O)C2CCN(Cc3ccnc(N)c3)CC2)CC1` [Compound 32], in data set [1], the Ki lay within 0.83 to 16 nM.

For the compound `CO/N=C(/c1ccccn1)C1CCN(C(=O)C2(F)CCN(Cc3ccnc(N)c3)CC2)CC1` [Compound 446], the “average reduction in non-fasting glucose levels” value in data set [4] amounted to 81 mg/dL. Also, in data set [5], the HbA1C levels entry is reported as “significantly reduced” and the non-fasting glucose levels entry is given as “significantly reduced”.

For the compound `CON=C(c1ccccn1)C1CCN(C(=O)C2CCN(Cc3ccnc(N)c3)CC2)CC1` [Compound 31], the Ki in data set [1] was 0.83 to 16 nM.
